From ChEMBL document CHEMBL5303573, “Mapping human microbiome drug metabolism by gut bacteria and their genes” (Nature, 2019) come the findings set out here.

Series [1] in a line: The drug is tested on Collinsella intestinalis strain: DSM13280 for biotransformation. The drug concentrations were measured before and after a 12-h incubation by liquid-chromatography-coupled mass spectrometry (LC–MS). The following applies: 2 µM.
The conditions of series [2]: bacteroides intestinalis, 12 h, 2 µM.
Description: The drug is tested on Bacteroides intestinalis strain: DSM17393 for biotransformation. The drug concentrations were measured before and after a 12-h incubation by liquid-chromatography-coupled mass spectrometry (LC–MS)
For series [3] the following is noted: bacteroides thetaiotaomicron, 12 h, 2 µM.
Description: The drug is tested on Bacteroides thetaiotaomicron strain: 7330 for biotransformation. The drug concentrations were measured before and after a 12-h incubation by liquid-chromatography-coupled mass spectrometry (LC–MS)
For series [4] the following is noted: bacteroides eggerthii, 12 h, 2 µM.
Description: The drug is tested on Bacteroides eggerthii strain: DSM20697 for biotransformation. The drug concentrations were measured before and after a 12-h incubation by liquid-chromatography-coupled mass spectrometry (LC–MS)
Series [5] is described as follows: The drug is tested on Providencia stuartii strain: ATCC25827 for biotransformation. The drug concentrations were measured before and after a 12-h incubation by liquid-chromatography-coupled mass spectrometry (LC–MS). The following applies: 2 µM.
The nature of series [6]: The drug is tested on Bacteroides dorei strain: DSM17855 for biotransformation. The drug concentrations were measured before and after a 12-h incubation by liquid-chromatography-coupled mass spectrometry (LC–MS). The following applies: phocaeicola dorei, 2 µM.
Series [7] can be described thus: The drug is tested on Bacteroides sp. WH2 strain: WH2 for biotransformation. The drug concentrations were measured before and after a 12-h incubation by liquid-chromatography-coupled mass spectrometry (LC–MS). The following applies: bacteroides sp. wh2, 12 h, 2 µM.
A short description of series [8]: The drug is tested on Clostridium asparagiforme strain: DSM15981 for biotransformation. The drug concentrations were measured before and after a 12-h incubation by liquid-chromatography-coupled mass spectrometry (LC–MS). On the set-up: dose 2 uM, timepoint 0 vs 12 hours. The format is ADME. The following applies: enterocloster asparagiformis, 2 µM.
Series [9] in a line: The drug is tested on Bacteroides coprophilus strain: DSM18228 for biotransformation. The drug concentrations were measured before and after a 12-h incubation by liquid-chromatography-coupled mass spectrometry (LC–MS). The following applies: 2 µM.
Series [10] in a line: The drug is tested on Bacteroides pectinophilus strain: ATCC43243 for biotransformation. The drug concentrations were measured before and after a 12-h incubation by liquid-chromatography-coupled mass spectrometry (LC–MS). The following applies: 2 µM.
Series [11] can be described thus: The drug is tested on Bifidobacterium longum subsp. Infantis strain: CCUG52486 for biotransformation. The drug concentrations were measured before and after a 12-h incubation by liquid-chromatography-coupled mass spectrometry (LC–MS). The following applies: 2 µM.
For series [12] the following is noted: limosilactobacillus reuteri cf48-3a, 12 h, 2 µM.
Description: The drug is tested on Lactobacillus reuteri CF48-3A strain: BEI HM-102 for biotransformation. The drug concentrations were measured before and after a 12-h incubation by liquid-chromatography-coupled mass spectrometry (LC–MS)
Series [13] is described as follows: The drug is tested on Parabacteroides merdae strain: ATCC43184 for biotransformation. The drug concentrations were measured before and after a 12-h incubation by liquid-chromatography-coupled mass spectrometry (LC–MS). The following applies: 2 µM.
For series [14] the following is noted: enterocloster bolteae, 12 h, 2 µM.
Description: The drug is tested on Clostridium bolteae strain: ATCCBAA-613 for biotransformation. The drug concentrations were measured before and after a 12-h incubation by liquid-chromatography-coupled mass spectrometry (LC–MS)
Series [15] can be described thus: The drug is tested on Collinsella aerofaciens strain: ATCC25986 for biotransformation. The drug concentrations were measured before and after a 12-h incubation by liquid-chromatography-coupled mass spectrometry (LC–MS). The following applies: 2 µM.
The conditions of series [16]: bacteroides stercoris, 12 h, 2 µM.
Description: The drug is tested on Bacteroides stercoris strain: ATCC43183 for biotransformation. The drug concentrations were measured before and after a 12-h incubation by liquid-chromatography-coupled mass spectrometry (LC–MS)
The nature of series [17]: The drug is tested on Edwardsiella tarda strain: ATCC23685 for biotransformation. The drug concentrations were measured before and after a 12-h incubation by liquid-chromatography-coupled mass spectrometry (LC–MS). The following applies: 2 µM.
Series [18] can be described thus: The drug is tested on Ruminococcus gnavus strain: ATCC29149 for biotransformation. The drug concentrations were measured before and after a 12-h incubation by liquid-chromatography-coupled mass spectrometry (LC–MS). The following applies: mediterraneibacter gnavus, 2 µM.
Series [19] is described as follows: The drug is tested on Anaerococcus hydrogenalis strain: DSM7454 for biotransformation. The drug concentrations were measured before and after a 12-h incubation by liquid-chromatography-coupled mass spectrometry (LC–MS). The following applies: 2 µM.

Consider `CCN(CC)CCCC(C)Nc1c2ccc(Cl)cc2nc2ccc(OC)cc12` (stereo not drawn) [QUINACRINE], for which the “Bacterial Biotransformation” value in [1], in series [2], in [3], in series [4], in series [5] and in [6] was “Compound NOT metabolized” each time. Also, the “Bacterial Biotransformation” value in series [7], in series [8], in series [9], in [10], in series [11] and in series [12] was “Compound NOT metabolized” in each case. For the same compound, the “Bacterial Biotransformation” value in [13], in series [14], in series [15] and in [16] was “Compound NOT metabolized” throughout.

On to `CC(=O)CC(c1ccccc1)c1c(O)c2ccccc2oc1=O` (stereo not drawn) [WARFARIN], for which the “Bacterial Biotransformation” value in [1], in series [2], in series [3], in series [4], in series [5] and in [6] was “Compound NOT metabolized” throughout. For the same compound, the “Bacterial Biotransformation” value in series [7], in series [8], in series [17], in series [9], in series [10] and in [18] was “Compound NOT metabolized” each time. Further, the “Bacterial Biotransformation” value in series [11], in [12], in series [13], in series [14], in series [19] and in [15] was “Compound NOT metabolized” throughout. In addition, in series [16], the “Bacterial Biotransformation” value is “Compound NOT metabolized”.

Consider `CC(C)c1nc(N(C)S(C)(=O)=O)nc(-c2ccc(F)cc2)c1/C=C/[C@@H](O)C[C@@H](O)CC(=O)[O-].CC(C)c1nc(N(C)S(C)(=O)=O)nc(-c2ccc(F)cc2)c1/C=C/[C@@H](O)C[C@@H](O)CC(=O)[O-].[Ca+2]` [ROSUVASTATIN CALCIUM], for which the “Bacterial Biotransformation” value in series [1], in series [2], in [3], in series [4], in [5] and in [6] was “Compound NOT metabolized” throughout. Moreover, the “Bacterial Biotransformation” value in series [7], in series [8], in series [17], in series [9], in series [10] and in [18] was “Compound NOT metabolized” in each case. Moreover, the “Bacterial Biotransformation” value in series [11], in series [12], in series [14], in series [19], in series [15] and in [16] was “Compound NOT metabolized” each time.

`C=CC[C@@H]1/C=C(\C)C[C@H](C)C[C@H](OC)[C@H]2O[C@@](O)(C(=O)C(=O)N3CCCC[C@H]3C(=O)O[C@H](/C(C)=C/[C@@H]3CC[C@@H](O)[C@H](OC)C3)[C@H](C)[C@@H](O)CC1=O)[C@H](C)C[C@@H]2OC.O` [TACROLIMUS]: the “Bacterial Biotransformation” value is reported as “Compound metabolized” in [1]; “Compound metabolized” in series [2]; “Compound NOT metabolized” in [3]; “Compound metabolized” in [4]; “Compound NOT metabolized” in series [5]; “Compound metabolized” in series [6]. Moreover, the “Bacterial Biotransformation” value in series [7] is recorded as “Compound NOT metabolized”; in [8] it was “Compound metabolized”; in series [17], “Compound NOT metabolized”; in [9] it was “Compound metabolized”; in [10], “Compound NOT metabolized”; in series [18] it was “Compound metabolized”. Further, the “Bacterial Biotransformation” value is given as “Compound NOT metabolized” in [11]; “Compound metabolized” in series [12]; “Compound NOT metabolized” in series [13]; “Compound metabolized” in series [14]; “Compound metabolized” in series [19]; “Compound metabolized” in series [15]. The “Bacterial Biotransformation” value in [16] is recorded as “Compound metabolized”.

As for `CC(C)c1nc(CN(C)C(=O)N[C@H](C(=O)N[C@@H](Cc2ccccc2)C[C@H](O)[C@H](Cc2ccccc2)NC(=O)OCc2cncs2)C(C)C)cs1` [RITONAVIR], the “Bacterial Biotransformation” value in series [1] is recorded as “Compound NOT metabolized”; in [3] it was “Compound NOT metabolized”; in series [4] it was “Compound metabolized”; in series [5] it was “Compound NOT metabolized”; in series [6] it was “Compound metabolized”; in series [7], “Compound NOT metabolized”. For the same compound, the “Bacterial Biotransformation” value in series [8], in [17], in series [9], in [10], in series [18] and in series [11] was “Compound NOT metabolized” in each case. Also, the “Bacterial Biotransformation” value in series [12], in [13], in series [14], in series [19], in [15] and in series [16] was “Compound NOT metabolized” each time.

In the case of `C#C[C@]1(OC(C)=O)CC[C@H]2[C@@H]3CCC4=C[C@@H](OC(C)=O)CC[C@@H]4[C@H]3CC[C@@]21C` [ETHYNODIOL DIACETATE], the “Bacterial Biotransformation” value in series [1], in series [2], in [3], in [4], in series [5] and in series [6] was “Compound NOT metabolized” throughout. Besides, the “Bacterial Biotransformation” value in [7], in series [8], in series [17], in series [9], in [10] and in [11] was “Compound NOT metabolized” in each case. The “Bacterial Biotransformation” value in series [12], in series [13], in [14], in series [19], in series [15] and in series [16] was “Compound NOT metabolized” each time.
